From US20240400692A1, “CELIAC DISEASE EPITOPES” (NEXTERA AS, priority 2021, published 2024)

Key:
[1] = biological target: T1, chymotrypsin (Bos taurus, UniProt P00766); assay: In vitro chymotrypsin digest and mass spectrometry of recombinant gliadin; conditions: chymotrypsin 200:1 (w:w), 37° C., 24h; MS; FIG. 9E
T1 construct: purchased Sigma; host or cells: substrate gliadin: E. coli BL21 (DE3)pLysS, made by Genscript
From the text: Assessment of in vitro chymotrypsin proteolysis of the A0A0E3SZN6_TRIUA protein. The T. aestivum Q9M4L6_WHEAT (A), T. urartu A0A0E3SZN6_TRIUA (B) and T. aestivum Q9FUW7_WHEAT (C) proteins where produced and affinity purified from E. coli, followed by in vitro chymotrypsin digest and mass spectrometry analysis of the resulting peptide segments (D, E and F). The anticipated 9-mer core regions of the relevant epitopes are indicated by enumeration (D, E and F). Panel A: SDS-PAGE and Western blot analysis of Q9M4L6_WHEAT. Lane M1: Protein Marker, GenScript, Cat. No. M00516, Lane M2: Protein Marker, GenScript, Cat. No. M00521, Lane 1: BSA ([…]), Lane 2: Q9M4L6_WHEAT (Reducing condition, […]), Lane 3: Q9M4L6_WHEAT (Non-reducing condition, 2.00 μg), Lane 4: Q9M4L6_WHEAT (Reducing condition), Lane 5: Q9M4L6_WHEAT (Non-reducing condition), Primary antibody: Mouse-anti-His mAb (GenScript, Cat. No. A00186). Panel B: SDS-PAGE and Western blot analysis of A0A0E3SZN6_TRIUA. […]
Recombinant gliadins were in vitro chymotrypsin digested essentially as described (Molberg O, et al., Methods Mol Med. 2000; 41:105-24). […] MS spectra were analyzed by using the PEAKS studio software (Bioinformatics Solutions Inc.) searched against a custom databased made by the respective gliadin Uniprot accession codes.

[2] = tested on: T cells in HLA-DQ2.5 typed PBMCs; assay: Intracellular IFN-γ flow assay of peptide-stimulated PBMCs; assay type: cell-based, human; conditions: for expansion of IFN-γ positive cells in the CD3+/CD4− cell population / expansion of IFN-γ positive CD4 T cells, CeD donor: 20 μM peptide; for expansion of IFN-γ positive cells in the CD3+/CD4− cell population / expansion of IFN-γ positive CD4 T cells, CeD donor / presence of response in tested CeD PBMC material / responses in healthy controls: 48h; for expansion of IFN-γ positive cells in the CD3+/CD4− cell population: FIG. 14C; for peptide reactivity, CeD donor 595: no statistical difference; for expansion of IFN-γ positive CD4 T cells, CeD donor: CeD donor 595, average, FIG. 14B; for presence of response in tested CeD PBMC material: CeD donors 585, 595 and 600; for presence of response in tested CeD PBMC material / responses in healthy controls: 20 μM; for responses in healthy controls: two HCs (557 and 558), FIG. 15B
From the text: Intracellular IFNγ flow assessment of CD4 T cell peptide stimulatory capacity using PBMCs. Cryopreserved HLA-DQ2.5 typed PBMCs from confirmed healthy controls (HC) and CeD patients were purchased (HemaCare-Cellero) and used in autologous in vitro T cell peptide stimulation assays followed by intracellular IFNγ staining in flow. (A) PBMCs from CeD donor 595 were used to set intracellular IFNγ baseline detection gates on CD3/CD4 T cells using anti-IFNγ-PE. (B and C) Bar graph representing intracellular IFNγ detection in CD4+/IFNγ+(B) and CD4−/IFNγ+(C) gates as illustrated in A. PBMCs from CeD donor 595 and HC 575 were stimulated with 20 μM DQ2.5-glia 33-mer (N-[…]-C(SEQ ID NO:59)) and A0A0E3SZN6_p6E_long (N-[…]-C(SEQ ID NO:30)), for 48h followed by intracellular T cell IFNγ detection.
Intracellular IFN-γ flow assessment of CD4 T cell peptide stimulatory capacity using PBMCs. Cryopreserved HLA-DQ2.5 typed PBMCs from confirmed healthy controls (HC) and CeD patients were purchased (HemaCare-Cellero) and used in autologous in vitro T cell peptide stimulation assays followed by intracellular IFN-γ staining in flow. Intracellular IFN-γ baseline detection gates on CD3/CD4 T cells using anti-IFN-γ-PE were set as in FIG. 14.
PBMCs from CeD donors (585, 595 and 600) and HCs (557 and 558) were stimulated with 20 μM DQ2.5-glia 33-mer (N-[…]-C(SEQ ID NO:59)) and A0A0E3SZN6_p6E_long (N-[…]-C(SEQ ID NO:30)), for 48h followed by intracellular T cell IFN-γ detection (A and B). Values are presented as mean values and ±SEM.
Peptide-stimulated PBMCs were assessed for intracellular IFN-γ following reagents and the standard protocol from BioLegend (https://www.biolegend.com/). Briefly, cryopreserved human HLA-DQ2.5^+ PBMCs (HemaCare-Cellero) where gently thawed and washed in ice-cold PBS before resuspended into RPMI1640 supplemented with 10% FCS (v/v) before volumes of 1 ml (about 2×10^7 cells) were aliquoted into a 24-well microtiter plate (NUNC). One set of wells received either 20 μM of peptide (either A0A0E3SZN6_p6E_long ([…] (SEQ ID NO:30)) or 33-mer ([…] ([…]))). […] The cells were grown at standard conditions at 37° C. for 36h before Brefaldin A (BioLegend) and Monensin (BioLegend) was added, and incubation continued for another 12 h. The cells were then assessed for intracellular IFN-γ by flow. Data was acquired on a BD Accuri C6 cytometer (BD Biosciences) and analyzed using FlowJo software V10 (Tree Star).

[3] = tested on: T cells in HLA-DQ2.5 typed PBMCs; assay: as above; assay type: cell-based, human; conditions: HC donor 557; 20 μM peptide; 48h; FIG. 14B
[4] = tested on: 107 antibody; assay: FACS of antibody binding to peptides pulsed onto DQ2.5+ Raji cells, 107 antibody; assay type: cell-based; conditions: 50 μM peptide pulsed onto human DQ2.5+ Raji cells
Experimental: (§1) Assessment of antibody binding to the A0A0E3SZN6_TRIUA epitope candidate. […] The indicated peptides (50 μM) were pulsed onto human DQ2.5*Raji cells and antibody binding was tested in FACS as described (B).
(§2) Assessment of antibody binding to the physiological relevant forms of the A0A0E3SZN6_TRIUA epitope candidate. The T. urartuA0A0E3SZN6_TRIUA (A) and T. aestivum Q9M4L6_WHEAT (B) sequences were in silico digested with tryspin and chymotrypsin, and the relevant digested fragments shown underlined (A and B). […] The known P positions are indicated (C). The indicated peptides were pulsed (50 μM) onto human DQ2.5*Raji cells and antibody binding was tested in FACS as described (D).
(§3) To identify putative gliadin-derived sequences different from, but with similarity to, the 30 DOQ.2.5-glia-α1a epitope (PFPQP{right arrow over (E)}LPY (SEQ ID NO:4)), the UniProtKB protein database was searched using the ScanProsite tool (https://prosite.expasyorg/scanprosite/). […] More specifically, we fixed the proline (P) in p1, the glutamine (Q) in p6, the tyrosine (Y) in p9, and P was disallowed in the position p10 after the p9 Y (underlined). To focus the output of the searches, we restricted the output to the Triticum taxonomic group. […] In some cases, Q residues were exchanged with glutamate (E) in the peptide synthesis in order to mimic positional deamidation.

[5] = tested on: 4.7C antibody; assay: FACS of antibody binding to peptides pulsed onto DQ2.5+ Raji cells, 4.7C antibody; assay type: cell-based; conditions: 50 μM peptide pulsed onto human DQ2.5+ Raji cells
Experimental: as §1, §2, §3

[6] = A0A0E3SZN6 peptide versus 33-mer, FIG. 15A

Sequence of 107 antibody (as listed by the source, other chains not shown): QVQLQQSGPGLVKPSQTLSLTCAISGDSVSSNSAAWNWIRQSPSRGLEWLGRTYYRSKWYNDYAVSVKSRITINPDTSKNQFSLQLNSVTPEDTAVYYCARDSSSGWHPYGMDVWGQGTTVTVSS
Sequence of 107 antibody (as listed by the source, other chains not shown): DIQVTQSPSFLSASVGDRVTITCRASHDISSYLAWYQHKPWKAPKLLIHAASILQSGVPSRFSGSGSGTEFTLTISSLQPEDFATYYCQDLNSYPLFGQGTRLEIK
Sequence of 4.7C antibody (as listed by the source, other chains not shown): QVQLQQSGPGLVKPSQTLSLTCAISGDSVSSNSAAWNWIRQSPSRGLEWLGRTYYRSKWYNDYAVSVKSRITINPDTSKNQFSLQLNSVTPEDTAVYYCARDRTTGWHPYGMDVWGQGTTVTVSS

## A0A0E3SZN6_TRIUA: omega-gliadin protein of Triticum urartu (SEQ ID NO:1), produced recombinantly in E. coli (QPQQPYP)
[1]
  processing of the 9-mer core by chymotrypsin proteolysis: no destructive processing was observed of the postulated novel 9-mer core peptide

## LQLQPFPQPELPYPQPELPYPQPELPYPQPQPF (SEQ ID NO:55) [33-mer, reference compound]
[2]
  expansion of IFN-γ positive cells in the CD3+/CD4− cell population: not seen
  expansion of IFN-γ positive CD4 T cells, CeD donor: 4.2%
  responses in healthy controls: no responses
[2]; [6]
  peptide reactivity, CeD donor 585: appeared to favor
  peptide reactivity, CeD donor 595: about equal on both
[2]; FIG. 15A
  presence of response in tested CeD PBMC material: 2/3
[3]
  expansion of IFN-γ positive CD4 T cells, healthy control: no such expansion

## PQPELPYPQPE (SEQ ID NO:57) [DQ2.5-glia-α2, reference compound]
[4]
  binding of 107 antibody to peptide-pulsed Raji cells (FACS): No binding
[5]
  binding of 4.7C antibody to peptide-pulsed Raji cells (FACS): No binding

## PQQPYPEQEQPYGT (SEQ ID NO:63) [EE]
[4]
  binding of 107 antibody to peptide-pulsed Raji cells (FACS): bind well
[5]
  binding of 4.7C antibody to peptide-pulsed Raji cells (FACS): bind well

## PQQPYPEQQQPYGT (SEQ ID NO:62) [form of the peptide with E at position 4 of the 9-mer]
[4]
  binding of 107 antibody to peptide-pulsed Raji cells (FACS): not

## PQQPYPQQEQPYGT (SEQ ID NO:29)
[4]
  binding of 107 antibody to peptide-pulsed Raji cells (FACS): bind well
[5]
  binding of 4.7C antibody to peptide-pulsed Raji cells (FACS): bind well

## PQQPYPQQQQPYGT (SEQ ID NO:24)
[4]
  binding of 107 antibody to peptide-pulsed Raji cells (FACS): not

## PYPQQEQPY (SEQ ID NO:25) [p6 deamidated 9-mer]
[4]
  binding of 107 antibody to peptide-pulsed Raji cells (FACS): no binding
[5]
  binding of 4.7C antibody to peptide-pulsed Raji cells (FACS): no binding

## QPQQPYPQQEQPYGTSL (SEQ ID NO:30) [A0A0E3SZN6 peptide]
[2]
  expansion of IFN-γ positive cells in the CD3+/CD4− cell population: not seen
  expansion of IFN-γ positive CD4 T cells, CeD donor: 2.8%
  responses in healthy controls: no responses
[2]; [6]
  peptide reactivity, CeD donor 600: appeared to favor
  peptide reactivity, CeD donor 595: about equal on both
[2]; FIG. 15A
  presence of response in tested CeD PBMC material: 2/3
[3]
  expansion of IFN-γ positive CD4 T cells, healthy control: no such expansion
